Assay [1] concerns the target T1, CcrZ (YtmP) (Bacillus subtilis, UniProt C0SPC1).
T1 construct: full length, 6xHis-SUMO tag cleaved by SUMO protease, expressed in E. coli; monomer ~30 kDa; selenomethionine derivative for the crystal
T1 sequence (C0SPC1 1-269): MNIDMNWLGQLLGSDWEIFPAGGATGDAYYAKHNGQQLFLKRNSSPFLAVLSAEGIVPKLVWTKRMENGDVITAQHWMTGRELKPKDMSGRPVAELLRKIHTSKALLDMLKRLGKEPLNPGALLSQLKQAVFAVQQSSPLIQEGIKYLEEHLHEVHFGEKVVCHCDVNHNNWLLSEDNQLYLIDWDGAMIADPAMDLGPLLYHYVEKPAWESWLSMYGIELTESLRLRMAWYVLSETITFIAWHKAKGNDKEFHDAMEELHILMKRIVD
The experiment in a line: ADP-Glo ATPase assay (proxy for kinase activity). Type of assay: biochemical. The settings on record: 0.1 mM ATP, 37 °C, 30 min, product not identified.

Assay [2] has as its target T1, CcrZ (YtmP). Nature of the assay: X-ray crystallography, SAD, […] Å. Type of assay: binding. The note with it: selenomethionine derivative; pH 5.84, PEG 6000, 1 M LiCl, MgCl2 and D-ribose added but not seen; adenine in ATP pocket, phosphates turned to solvent (non-catalytic pose).
In a further assay the target is T2, LicA (Streptococcus pneumoniae, UniProt Q8DPI4).
T2 construct: gene pck; gene codon optimized for B. subtilis, pE-SUMO-kan vector, SUMO tag cleaved, expressed in E. coli BL21
The experiment in a line: ADP-Glo ATPase assay (proxy for kinase activity). Type of assay: biochemical. The settings on record: 1.25 mM choline, 0.1 mM ATP, 37 °C, 30 min. On the technique in general: ADP-Glo turns the ADP formed in a reaction into a luminescent signal.

Structures are written as SMILES.

T2 sequence (Q8DPI4 entry or part of it): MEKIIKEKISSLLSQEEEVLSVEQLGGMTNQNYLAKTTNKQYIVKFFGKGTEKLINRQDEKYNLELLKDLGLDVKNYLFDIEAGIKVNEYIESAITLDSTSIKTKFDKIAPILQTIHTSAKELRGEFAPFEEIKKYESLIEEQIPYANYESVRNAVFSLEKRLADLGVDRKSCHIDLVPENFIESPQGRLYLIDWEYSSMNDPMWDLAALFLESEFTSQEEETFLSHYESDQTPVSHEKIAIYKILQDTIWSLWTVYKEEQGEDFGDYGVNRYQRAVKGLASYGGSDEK

As for `OC[C@H]1OC(O)C[C@@H]1O` (stereo partly drawn) [2-deoxy-D-ribose], the “ADP-Glo ATPase assay (proxy for kinase activity)” value (“ADP-Glo ATPase assay” below) at CcrZ (YtmP) [1] (5 mM 2-deoxy-ribose) is “CcrZ ATPase activity was stimulated in the presence of D-ribose and 2-deoxy-D-ribose”.
For `OC1OC[C@@H](O)[C@@H](O)[C@H]1O` (stereo partly drawn) [D-ribose], the “ADP-Glo ATPase assay” value at CcrZ (YtmP) [1] (5 mM D-ribose) was “CcrZ ATPase activity was stimulated in the presence of D-ribose and 2-deoxy-D-ribose”.
As to `Nc1ncnc2c1ncn2[C@@H]1O[C@H](COP(=O)(O)OP(=O)(O)NP(=O)(O)O)[C@@H](O)[C@H]1O` [AMP-PNP], the “X-ray crystallography, SAD, 2.6 Å” value at CcrZ (YtmP) [2] is given as “we solved the crystal structure of B. subtilis CcrZ bound to AMP-PNP”.
Regarding `C[N+](C)(C)CCO` [choline], the “ADP-Glo ATPase assay” value on LicA is listed as “CcrZ does not have activity on choline while LicA shows robust activity”.
